Test results reported in article PMC6927504, “Screening of House Dust from Chinese Homes for Chemicals with Liver X Receptors Binding Activities and Characterization of Atherosclerotic Activity Using an in Vitro Macrophage Cell Line and ApoE^−/− Mice” (Environmental Health Perspectives, 2019).

How the values were obtained:
ApoE−/− mice = test: Immunofluorescence staining of aortic root sections (MOMA-2, SMCα-Actin) in ApoE−/− mice; format: in vivo, mouse; details: 13 weeks
From the text: All experiments related to animals were approved by the institutional animal care and use committee of Peking University and followed the guidelines for animal experiments of the university as well as for experimental animals in China. The biological effect size of the animal experiments was based on the previous paper ([Negro Silva et al. 2017]). C57BL/6 (12 weeks old) and ApoE^−/− mice (12 weeks old) were obtained from the Beijing Vital River Laboratory Animal Technology Company. Mice used in the experiments were acclimated to the housing unit 2 weeks before they were used for experiments, and they were randomly assigned to control or TPHP treatment groups. Five animals were housed to a cage, and mice were acclimatized to the controlled environment (temperature: 22±2°C; relative humidity: 40–60%; artificial lighting: 12 h:12 h light/dark). Mice received diet and drinking water ad libitum. Body weight (BW) was measured every week during the dosing period. Forty-five C57BL/6 mice and 27 ApoE^−/− mice were used in this study. Animal protocol 1: Male C57BL/6 mice (five mice per group) were fed a basic diet (Laboratory Animal Center of the Academy of Military Medical Sciences, China). On Day 0, mice were stimulated with paraffin oil by intraperitoneal injection. From Day 1 to Day 7, mice were exposed to corn oil (control) or TPHP (dissolved in corn oil) at 40 or 200mg/kg BW by daily oral gavage. The volume of the corn oil or TPHP in corn oil administered was 5mL/kg BW. On Day 8, after the mice were anesthetized by sodium pentobarbital via intramuscular injection, peritoneal macrophages were harvested from peritoneal lavage with 4mL pre-warmed DMEM-F12 (containing 10% FBS) using a 25-gauge needle; 5–10 min later, 3–3.5mL peritoneal fluid was collected, and the cells were isolated by centrifuge at 1,000 rpm for 5 min. […] Considering that this study assessed the effects of short-term exposure to TPHP, whereas humans are exposed to TPHP over a lifelong period, the present study used exposure doses that were higher than that of human exposure from house dust. […]

[1] = Body weight of ApoE−/− mice; format: in vivo, mouse; details: 10 and 40 mg/kg BW, 13 weeks
From the text: All experiments related to animals were approved by the institutional animal care and use committee of Peking University and followed the guidelines for animal experiments of the university as well as for experimental animals in China. The biological effect size of the animal experiments was based on the previous paper ([Negro Silva et al. 2017]). C57BL/6 (12 weeks old) and ApoE^−/− mice (12 weeks old) were obtained from the Beijing Vital River Laboratory Animal Technology Company. Mice used in the experiments were acclimated to the housing unit 2 weeks before they were used for experiments, and they were randomly assigned to control or TPHP treatment groups. Five animals were housed to a cage, and mice were acclimatized to the controlled environment (temperature: 22±2°C; relative humidity: 40–60%; artificial lighting: 12 h:12 h light/dark). Mice received diet and drinking water ad libitum. Body weight (BW) was measured every week during the dosing period. Forty-five C57BL/6 mice and 27 ApoE^−/− mice were used in this study. […] Considering that this study assessed the effects of short-term exposure to TPHP, whereas humans are exposed to TPHP over a lifelong period, the present study used exposure doses that were higher than that of human exposure from house dust. […]

RAW264.7 macrophages = test: Cellular NBD-cholesterol efflux assay in RAW264.7 macrophages; format: cell-based
Protocol: RAW264.7 cells were obtained from the National Infrastructure of Cell Line Resource of Beijing, China, and the cells used for the experiment were cultured for at least three passages. Dulbecco’s Modified Eagle’s Medium (DMEM)-F12 medium containing 10% fetal bovine serum (FBS) was employed to culture the RAW264.7 cells. RAW264.7 cells were incubated at 37°C with 5% carbon dioxide. The RAW264.7 cells were plated at 2.5×10^5 cells/well (6-well plates), 6.0×10^4 cells/well (24-well plates), and 10^4 cells/well (96-well plates). […] Then the cells were used for the quantitative reverse transcription (qRT)-PCR, cellular cholesterol efflux assay, and foam cell formation experiment.
RAW264.7 cells or mouse peritoneal macrophages were plated in 96-well plates at 10^4 cells/well and cultured with DMEM-F12 containing 10% FBS and 1μg/mL 22-[N-(7-nitrobenz-2-oxa-1,3-diazol-4-yl)amino]-23,24-bisnor-5-cholen-3β-Ol (NBD-cholesterol) for 24 h. […] NBD-cholesterol in the medium and cell lysis buffer were measured, respectively, using a Tecan Infinite® M1000Pro Microplate Reader (Tecan Group Ltd.) at 485-nm excitation wavelength and 535-nm emission wavelength. Cholesterol efflux was expressed as a percentage of fluorescence in the medium relative to the total amount of fluorescence.

[2] = test system: human primary preadipocytes; set-up: method as in Tung et al. 2017; details: ref Tung et al. 2017; cited from earlier work

In the case of `O=P(Oc1ccccc1)(Oc1ccccc1)Oc1ccccc1` [TPHP, triphenyl phosphate], the “Macrophage content (MOMA-2) in aortic root lesions, higher than control” value (ApoE−/− mice; 10 mg/kg BW, p<0.05) is reported as 1.9 fold, the “Macrophage content (MOMA-2) in aortic root lesions, higher than control” value (ApoE−/− mice; 40 mg/kg BW, p<0.01) is reported as 3.1 fold and the “Abundance of SMCs (SMCα-Actin) in the aortic roots versus control” value (ApoE−/− mice; 10 and 40 mg/kg BW) is reported as “a significant difference was not found”. For the same compound, the “Body weight versus control” value [1] was “No significant differences”, the “NBD-cholesterol efflux mediated by ApoA-I” value (RAW264.7 macrophages; 100–20,000 nM) was “significantly inhibited” and the “NBD-cholesterol efflux mediated by HDL” value (RAW264.7 macrophages; 1,000–20,000 nM) was “significantly inhibited”. For the same compound, the Adipogenesis [2] was “promote adipogenesis”.
